Experimental data published in patent US12509447B2, “Small molecule compound” (Technoderma Medicines Pte Ltd, priority 2019, dated 2025).

Assays:
Assay type in all cases: biochemical
JAK1 = JAK1 (Homo sapiens, UniProt P23458); assay: Inhibition of JAK kinase activity, EZ Reader microfluidic phosphorylation of peptide substrate: JAK1; conditions: JAK1 kinase 20 nM; highest final concentration 10 μM, 1:3 serial dilution, 8 points, duplicates
Outline: (§1)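 Microfluidic mobility-shift assay reading fluorescent peptide substrate and product; kinases at 20 nM (JAK1) or 1 nM (JAK2, JAK3, Tyk2) in pH 7.4 HEPES with 10 mM MgCl2, run at room temperature to 20-30% conversion, then stopped with EDTA. Compounds tested from 10 μM top, 1:3 over 8 points in duplicate; IC50 fitted from % conversion.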

JAK2 = JAK2 (Homo sapiens, UniProt O60674); assay: Inhibition of JAK kinase activity, EZ Reader microfluidic phosphorylation of peptide substrate: JAK2; conditions: JAK2 kinase 1 nM; highest final concentration 10 μM, 1:3 serial dilution, 8 points, duplicates
Text: (§2) EZ Reader available from PerkinElmer can be used for detecting the phosphorylation of polypeptide substrates catalyzed by kinases. This device is based on microfluidic separation technology, and can directly detect fluorescence labeled substrates and products. The separation step is achieved in a microfluidic chip by controlling the pressure and electric field intensity. In a kinase experiment, the product conversion rate is generally controlled at 20-30%. This biological assay method is used for identifying the inhibitory effect of the compounds on JAK.
(§3) The compound powder was dissolved in DMSO, sealed and stored in a refrigerator at −20° C. The in-house compound Ref1 was used as a positive control for testing of JAK1, JAK2 and Tyk2, and Ref2 was used as a positive control for testing of JAK3.
(§4) • S2.1. 1M HEPES buffer: 0.5M HEPES free acid and 0.5M HEPES sodium salt are weighed, added into ultrapure water for dissolution, brought to a desired volume, filtered and stored in a refrigerator at 4° C. • S2.2. 40 mM ATP solution: dissolved in a 50 mM HEPES buffer solution, prepared into 40 mM, aliquoted, and cryopreserved in a refrigerator at −20° C. • S2.3. 0.5% Tween 20: 100% Tween 20 was diluted with ultrapure water, and stored in a refrigerator at 4° C. • S2.4. 35% bovine serum albumin: a 35% bovine serum albumin solution is prepared in ultrapure water, aliquoted, and stored in a refrigerator at −20° C. • S2.5. 1M dithiothreitol solution: dithiothreitol is formulated into a 1M solution with ultrapure water, aliquoted, and stored in a refrigerator at −20° C. • S2.6. 0.5 mM Jaktide Peptide substrate solution: it is dissolved in 50 mM HEPES to 0.5 mM, aliquoted, and stored in a refrigerator at −20° C. • S2.7. 0.5 mM IRStide Peptide substrate solution: it is dissolved in 50 mM HEPES to 0.5 mM, aliquoted, and stored in a refrigerator at −20° C. • S2.8. Assay Buffer: 20 mM HEPES buffer, pH 7.4, 10 mM magnesium chloride, 0.01% bovine serum albumin BSA, 0.0005% Tween-20, and a 1 mM dithiothreitol solution. • S2.9. Stop Buffer: 180 mM HEPES buffer, 20 mM ethylenediamine tetraacetic acid (EDTA), and 0.2% Coating Reagent 3. • S2.10. Separation Buffer: 100 mM HEPES buffer, 10 mM EDTA, 0.0005% Tween 20, 0.1% Coating Reagent 3, and 1% dimethyl sulfoxide. 3. Experimental Procedures • S3.1. Preparation of compound plate
(§5) The compound is dissolved in dimethyl sulfoxide to 10 mM, a certain volume is taken and diluted to 0.6 mM, 10 μl of the diluted 0.6 mM solution is taken and added into a 384 microplate or 1:3 serial dilution, with a total of 8 concentration points. • S3.2. Compound layout
(§6) • positive control (HPE1): Ref1, final concentration: 10 μM • positive control (HPE1): Ref2, final concentration: 10 μM • negative control (ZPE): DMSO, with a final concentration of 1.6% • Compound: the highest final concentration at 10 μM, 1:3 serial dilution, with 8 concentration points and in duplicates. 4. Experimental operation steps • S4.1. the experimental plate was added with 250 nl of the compound per well with ECHO, and centrifuged at 1,000 rpm for 1 minute; • S4.2. the precipitate was added with 5 μl of the experimental buffer, and shaken for several seconds to fully dissolve the compound; • S4.3. the solution was added with 5 μl of a 3× substrate solution, as well as 5 μl of a 3× kinase solution, and centrifuged at 800 rpm for 1 minute; • S4.4. The final concentrations of JAK1, JAK2, JAK3 and Tyk2 kinases in the reaction system are 20, 1, 1 and 1 nM, respectively. • S4.5. the reaction system is incubated at room temperature, wherein the incubation time of each kinase is different, and there are differences in incubation time of different batches of kinases. • S4.6. When the reaction reaches 20%-30%, the reaction system is added with 15 μl of the stop buffer to terminate the reaction, and centrifuged at 1,000 rpm for 2 minutes. • S4.7. The precipitate was placed onto a EZ Reader for plate reading. • S4.8. […]

JAK3 = biological target: T1, JAK3 (Homo sapiens, UniProt P52333); assay: Inhibition of JAK kinase activity, EZ Reader microfluidic phosphorylation of peptide substrate: JAK3; conditions: JAK3 kinase 1 nM; highest final concentration 10 μM, 1:3 serial dilution, 8 points, duplicates
T1 sequence (P52333 1-1124): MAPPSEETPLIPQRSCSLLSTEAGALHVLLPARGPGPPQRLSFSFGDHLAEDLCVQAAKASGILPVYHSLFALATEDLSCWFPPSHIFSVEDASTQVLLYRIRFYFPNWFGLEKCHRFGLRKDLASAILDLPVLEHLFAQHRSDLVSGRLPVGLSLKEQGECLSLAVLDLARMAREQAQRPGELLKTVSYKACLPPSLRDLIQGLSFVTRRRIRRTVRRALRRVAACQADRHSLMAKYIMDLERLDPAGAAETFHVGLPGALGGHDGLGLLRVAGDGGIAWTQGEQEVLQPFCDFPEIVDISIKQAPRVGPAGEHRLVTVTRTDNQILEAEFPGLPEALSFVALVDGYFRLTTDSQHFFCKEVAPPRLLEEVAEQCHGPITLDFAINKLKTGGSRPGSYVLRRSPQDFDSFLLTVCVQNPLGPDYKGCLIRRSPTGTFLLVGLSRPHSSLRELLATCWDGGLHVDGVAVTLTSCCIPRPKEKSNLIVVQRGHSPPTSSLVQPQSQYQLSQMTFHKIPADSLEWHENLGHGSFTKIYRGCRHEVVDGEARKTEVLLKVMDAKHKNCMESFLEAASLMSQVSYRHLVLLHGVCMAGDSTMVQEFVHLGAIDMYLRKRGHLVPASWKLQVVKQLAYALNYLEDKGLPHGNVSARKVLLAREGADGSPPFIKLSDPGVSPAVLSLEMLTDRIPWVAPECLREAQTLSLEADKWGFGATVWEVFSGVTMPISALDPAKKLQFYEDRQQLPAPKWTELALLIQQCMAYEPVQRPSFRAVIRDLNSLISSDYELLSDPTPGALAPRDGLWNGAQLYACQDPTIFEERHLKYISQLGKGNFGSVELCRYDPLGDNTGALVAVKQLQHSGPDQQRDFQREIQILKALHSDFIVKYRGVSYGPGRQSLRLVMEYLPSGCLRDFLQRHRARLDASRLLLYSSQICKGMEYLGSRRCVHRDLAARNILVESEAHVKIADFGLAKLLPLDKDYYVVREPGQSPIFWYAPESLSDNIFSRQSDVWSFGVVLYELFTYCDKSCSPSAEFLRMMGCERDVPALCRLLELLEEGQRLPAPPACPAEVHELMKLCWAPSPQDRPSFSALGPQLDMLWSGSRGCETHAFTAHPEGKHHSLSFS
Text: as §2, §3, §4, §5, §6

Tyk2 = Tyk2 (Homo sapiens, UniProt P29597); assay: Inhibition of JAK kinase activity, EZ Reader microfluidic phosphorylation of peptide substrate: Tyk2; conditions: Tyk2 kinase 1 nM; highest final concentration 10 μM, 1:3 serial dilution, 8 points, duplicates
Outline: as §1

Sequence of JAK1 (P23458 whole entry): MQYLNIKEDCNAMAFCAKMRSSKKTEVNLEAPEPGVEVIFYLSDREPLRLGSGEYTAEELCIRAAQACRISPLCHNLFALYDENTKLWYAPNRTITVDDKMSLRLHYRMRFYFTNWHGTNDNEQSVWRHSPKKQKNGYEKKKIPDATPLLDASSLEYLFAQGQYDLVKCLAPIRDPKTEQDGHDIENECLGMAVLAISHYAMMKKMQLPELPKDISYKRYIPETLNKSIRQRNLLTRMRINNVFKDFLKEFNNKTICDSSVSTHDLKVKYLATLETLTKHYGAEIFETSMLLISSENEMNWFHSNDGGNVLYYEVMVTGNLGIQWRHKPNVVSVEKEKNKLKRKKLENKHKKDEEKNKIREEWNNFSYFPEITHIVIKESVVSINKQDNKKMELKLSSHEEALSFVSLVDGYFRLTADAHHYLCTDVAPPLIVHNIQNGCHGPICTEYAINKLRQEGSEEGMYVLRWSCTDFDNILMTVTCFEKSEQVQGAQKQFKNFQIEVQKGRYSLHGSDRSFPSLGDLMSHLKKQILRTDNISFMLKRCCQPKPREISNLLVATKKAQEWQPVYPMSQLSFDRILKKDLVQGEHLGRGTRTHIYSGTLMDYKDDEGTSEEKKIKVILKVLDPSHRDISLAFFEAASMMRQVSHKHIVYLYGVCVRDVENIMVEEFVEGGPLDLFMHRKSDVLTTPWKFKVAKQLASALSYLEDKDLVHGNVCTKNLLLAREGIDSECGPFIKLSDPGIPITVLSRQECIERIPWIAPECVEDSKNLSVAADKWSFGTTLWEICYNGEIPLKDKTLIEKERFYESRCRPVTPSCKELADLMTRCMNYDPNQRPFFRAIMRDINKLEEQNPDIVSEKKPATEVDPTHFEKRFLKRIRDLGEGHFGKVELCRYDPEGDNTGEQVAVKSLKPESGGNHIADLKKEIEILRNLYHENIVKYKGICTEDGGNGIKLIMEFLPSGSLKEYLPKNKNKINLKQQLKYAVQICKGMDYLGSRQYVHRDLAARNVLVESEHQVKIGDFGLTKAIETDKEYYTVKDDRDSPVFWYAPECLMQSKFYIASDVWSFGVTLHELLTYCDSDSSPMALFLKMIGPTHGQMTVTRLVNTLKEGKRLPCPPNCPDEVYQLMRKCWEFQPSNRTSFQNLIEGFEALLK
Sequence of Tyk2 (P29597 whole entry): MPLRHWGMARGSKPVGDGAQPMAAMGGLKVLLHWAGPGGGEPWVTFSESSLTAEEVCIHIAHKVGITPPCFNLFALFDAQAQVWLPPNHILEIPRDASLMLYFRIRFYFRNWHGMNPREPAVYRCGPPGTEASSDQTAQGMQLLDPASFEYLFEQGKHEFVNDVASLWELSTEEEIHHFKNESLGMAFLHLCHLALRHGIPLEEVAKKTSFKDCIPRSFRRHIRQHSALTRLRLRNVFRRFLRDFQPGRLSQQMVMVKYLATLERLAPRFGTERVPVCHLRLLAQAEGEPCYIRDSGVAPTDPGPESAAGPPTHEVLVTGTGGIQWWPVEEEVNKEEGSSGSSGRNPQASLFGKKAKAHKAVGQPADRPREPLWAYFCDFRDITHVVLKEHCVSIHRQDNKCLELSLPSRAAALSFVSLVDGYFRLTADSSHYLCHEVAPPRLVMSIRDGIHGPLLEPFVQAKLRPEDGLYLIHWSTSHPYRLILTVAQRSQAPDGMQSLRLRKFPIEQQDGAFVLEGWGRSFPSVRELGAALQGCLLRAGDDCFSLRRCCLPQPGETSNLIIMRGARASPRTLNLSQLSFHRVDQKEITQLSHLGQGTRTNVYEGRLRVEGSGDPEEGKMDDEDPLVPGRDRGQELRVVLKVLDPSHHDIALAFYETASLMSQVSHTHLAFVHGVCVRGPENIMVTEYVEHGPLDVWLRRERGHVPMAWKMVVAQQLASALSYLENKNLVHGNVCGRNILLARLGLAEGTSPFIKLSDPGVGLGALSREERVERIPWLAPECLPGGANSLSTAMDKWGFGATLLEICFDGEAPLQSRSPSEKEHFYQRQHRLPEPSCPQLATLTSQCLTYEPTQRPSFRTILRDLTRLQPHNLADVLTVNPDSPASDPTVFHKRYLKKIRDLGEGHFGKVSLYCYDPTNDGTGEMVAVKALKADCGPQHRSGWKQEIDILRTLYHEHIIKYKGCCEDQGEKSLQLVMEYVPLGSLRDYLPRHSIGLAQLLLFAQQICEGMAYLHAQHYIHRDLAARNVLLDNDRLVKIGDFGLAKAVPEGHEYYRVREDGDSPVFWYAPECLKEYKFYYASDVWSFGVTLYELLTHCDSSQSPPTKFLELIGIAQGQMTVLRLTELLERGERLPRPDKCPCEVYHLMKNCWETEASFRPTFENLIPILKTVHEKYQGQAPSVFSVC
Sequence of JAK2 (O60674 whole entry): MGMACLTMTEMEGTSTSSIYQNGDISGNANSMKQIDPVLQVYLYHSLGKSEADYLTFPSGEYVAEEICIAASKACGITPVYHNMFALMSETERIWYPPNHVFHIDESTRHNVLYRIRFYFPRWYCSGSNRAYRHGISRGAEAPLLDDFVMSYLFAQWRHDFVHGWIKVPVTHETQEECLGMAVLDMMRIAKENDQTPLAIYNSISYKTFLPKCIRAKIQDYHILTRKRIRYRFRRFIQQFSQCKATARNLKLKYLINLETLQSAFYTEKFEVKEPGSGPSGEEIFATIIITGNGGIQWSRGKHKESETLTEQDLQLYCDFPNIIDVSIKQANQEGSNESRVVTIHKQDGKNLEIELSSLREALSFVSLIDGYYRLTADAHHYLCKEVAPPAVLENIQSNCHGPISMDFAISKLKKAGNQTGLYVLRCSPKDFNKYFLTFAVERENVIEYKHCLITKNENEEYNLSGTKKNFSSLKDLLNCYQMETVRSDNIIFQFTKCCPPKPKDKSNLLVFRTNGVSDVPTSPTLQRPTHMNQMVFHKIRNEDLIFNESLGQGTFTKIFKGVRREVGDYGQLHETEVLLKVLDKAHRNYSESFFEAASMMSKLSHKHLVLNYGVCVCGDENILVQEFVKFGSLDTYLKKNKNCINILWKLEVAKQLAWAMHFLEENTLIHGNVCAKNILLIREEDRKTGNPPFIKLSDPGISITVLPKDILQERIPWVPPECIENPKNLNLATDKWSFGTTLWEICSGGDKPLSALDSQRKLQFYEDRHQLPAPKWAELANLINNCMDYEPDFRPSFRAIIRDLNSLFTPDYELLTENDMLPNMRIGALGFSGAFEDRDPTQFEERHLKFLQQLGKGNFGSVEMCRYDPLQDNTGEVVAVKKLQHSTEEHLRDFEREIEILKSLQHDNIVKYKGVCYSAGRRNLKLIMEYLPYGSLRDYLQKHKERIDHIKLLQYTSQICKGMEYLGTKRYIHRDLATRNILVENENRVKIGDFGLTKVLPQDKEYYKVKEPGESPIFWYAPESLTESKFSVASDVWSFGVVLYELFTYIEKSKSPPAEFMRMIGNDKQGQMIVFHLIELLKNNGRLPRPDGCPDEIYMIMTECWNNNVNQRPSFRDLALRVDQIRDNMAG

`Cn1cc(Nc2nccc(-c3cnn(C4(CC#N)CN(S(=O)(=O)CCC(F)(F)F)C4)c3)n2)cn1` [TDM-180808, 2-(3-(4-(2-((1-methyl-1H-pyrazol-4-yl)amino)pyrimidin-4-yl)-1H-pyrazol-1-yl)-1-((3,3,3-trifluoropropyl)sulfonyl)azetidin-3-yl)acetonitrile] gave an IC50 (JAK1) of 0.1 to 1 µM, an IC50 (JAK2) of 0.1 to 1 µM and an IC50 (JAK3) of 1 to 10 µM. It also gave an IC50 (Tyk2) of 0.1 to 1 µM.
Work on `Cn1cc(Nc2nccc(-c3ccn(C4(CC#N)CN(C(=O)CC(F)(F)F)C4)c3)n2)cn1` [TDM-180778] yielded an IC50 (JAK1) of under 0.1 µM, an IC50 (JAK2) of 0.1 to 1 µM and an IC50 (JAK3) of 1 to 10 µM. For the same molecule, the IC50 (Tyk2) was under 0.1 µM.
For `Cn1cc(Nc2nccc(-c3cnn(C4CN(C(=O)CC#N)C4)c3)n2)cn1` [TDM-180671, 3-(3-(4-(2-((1-methyl-1H-pyrazol-4-yl)amino)pyrimidin-4-yl)-1H-pyrazol-1-yl)azetidin-1-yl)-3-oxopropanenitrile], the IC50 (JAK1) was at least 10 µM, the IC50 (JAK2) was at least 10 µM and the IC50 (JAK3) was at least 10 µM. It also gave an IC50 (Tyk2) of at least 10 µM.
`Cn1cc(Nc2nccc(-c3cnn(C4CN(C(=O)C5CC5(F)F)C4)c3)n2)cn1` (centres unmarked) [TDM-180668, (2,2-difluorocyclopropyl)(3-(4-(2-((1-methyl-1H-pyrazol-4-yl)amino)pyrimidin-4-yl)-1H-pyrazol-1-yl)azetidin-1-yl)ketone] gave an IC50 (JAK1) of at least 10 µM, an IC50 (JAK2) of at least 10 µM and an IC50 (JAK3) of at least 10 µM. The IC50 (Tyk2) was at least 10 µM.
`CCCS(=O)(=O)N1CCC(n2cc(-c3ccnc(Nc4cnn(C)c4)n3)cn2)C1` (centres unmarked) [TDM-180648, N-(1-methyl-1H-pyrazol-4-yl)-4-(1-(1-(propylsulfonyl)pyrrolidine-3-yl)-1H-pyrazol-4-yl)pyrimidin-2-amine] gave an IC50 (JAK1) of 1 to 10 µM, an IC50 (JAK2) of 1 to 10 µM and an IC50 (JAK3) of 1 to 10 µM. It also gave an IC50 (Tyk2) of 1 to 10 µM.
`Cn1cc(Nc2nccc(-c3cnn(C4CCN(C(=O)CC#N)CC4)c3)n2)cn1` [TDM-180680, 3-(4-(4-(2-((1-methyl-1H-pyrazol-4-yl)amino)pyrimidin-4-yl)-1H-pyrazol-1-yl)piperidin-1-yl)3-oxopropanenitrile] showed an IC50 (JAK1) of at least 10 µM, an IC50 (JAK2) of at least 10 µM and an IC50 (JAK3) of at least 10 µM. For the same molecule, the IC50 (Tyk2) was at least 10 µM.
Molecule `Cn1cc(Nc2cc(-c3cnn(C4CN(C(=O)C5CC5(F)F)C4)c3)ccn2)cn1` (centres unmarked) [TDM-180638] has an IC50 (JAK1) of at least 10 µM, an IC50 (JAK2) of at least 10 µM and an IC50 (JAK3) of at least 10 µM. For the same molecule, the IC50 (Tyk2) was at least 10 µM.
In the case of `Cn1cc(Nc2nccc(-c3cnn(C4CCN(C(=O)CC(F)(F)F)C4)c3)n2)cn1` (centres unmarked) [TDM-180651, 3,3,3-trifluoro-1-(3-(4-(2-((1-methyl-1H-pyrazol-4-yl)amino)pyrimidin-4-yl)-1H-pyrazol-1-yl)pyrrolidine-yl)propan-1-one], the IC50 (JAK1) is reported as at least 10 µM, the IC50 (JAK2) is reported as 1 to 10 µM and the IC50 (JAK3) is reported as at least 10 µM. The IC50 (Tyk2) was at least 10 µM.
Molecule `Cn1cc(Nc2nccc(-c3cnn(C4CN(C(=O)CO)C4)c3)n2)cn1` [TDM-180672, 2-hydroxy-1-(3(4-(2-((1-methyl-1H-pyrazol-4-yl)amino)pyrimidin-4-yl)-1H-pyrazol-1-yl)azetidin-1-yl)ethanone] has an IC50 (JAK1) of at least 10 µM, an IC50 (JAK2) of at least 10 µM and an IC50 (JAK3) of at least 10 µM. For the same molecule, the IC50 (Tyk2) was at least 10 µM.
For `CCC(=O)N1CC(n2cc(-c3ccnc(Nc4cnn(C)c4)n3)cn2)C1` [TDM-180646, 1-(3-(4-(2-((1-methyl-1H-pyrazol-4-yl)amino)pyrimidin-4-yl)-1H-pyrazol-1-yl)azetidin-1-yl)propan-1-one], the IC50 (JAK1) was at least 10 µM, the IC50 (JAK2) was at least 10 µM and the IC50 (JAK3) was at least 10 µM. The IC50 (Tyk2) was at least 10 µM.
`CCC(=O)N1CC(n2cc(-c3ccnc(Nc4cnn(C)c4)c3)cn2)C1` [TDM-180639, 1-(3-(4-(2-((1-methyl-1H-pyrazol-4-yl)amino)pyridin-4-y1)-1H-pyrazol-1-yl)azetidin-1-yl)propan-1-one] was tested, and the IC50 (JAK1) was at least 10 µM, the IC50 (JAK2) was at least 10 µM and the IC50 (JAK3) was at least 10 µM. The IC50 (Tyk2) was at least 10 µM.
`Cn1cc(Nc2nccc(-c3cnn(C4CCN(C(=O)CC(F)(F)F)CC4)c3)n2)cn1` [TDM-180678, 3,3,3-trifluoro-1-(4-(4-(2-((1-methyl-1H-pyrazol-4-yl)amino)pyrimidin-4-yl)-1H-pyrazol-1-yl)piperidin-1-yl)propan-1-one] showed an IC50 (JAK1) of at least 10 µM, an IC50 (JAK2) of at least 10 µM and an IC50 (JAK3) of at least 10 µM. It also gave an IC50 (Tyk2) of at least 10 µM.
In the case of `CC(=O)N1CCN(c2ccc(-c3ccnc(Nc4cnn(C)c4)n3)cc2)CC1` [TDM-180827, 1-(4-(4-(2-((1-methyl-1H-pyrazol-4-yl)amino)pyrimidin-4-yl)phenyl)piperazin-1-yl)ethan-1-one], the IC50 (JAK1) is reported as 1 to 10 µM, the IC50 (JAK2) is reported as 0.1 to 1 µM and the IC50 (JAK3) is reported as at least 10 µM. For the same molecule, the IC50 (Tyk2) was 1 to 10 µM.
`CCCS(=O)(=O)N1CC(CC#N)(n2cc(-c3ccnc(Nc4cnn(C)c4)n3)cn2)C1` [TDM-180794, 2-(3-(4-(2-((1-methyl-1H-pyrazol-4-yl)amino)pyrimidin-4-yl)-1H-pyrazol-1-yl)-1-(propylsulfonyl)azacyclobutanpyridin-3-yl)acetonitrile] gave an IC50 (JAK1) of 0.1 to 1 µM, an IC50 (JAK2) of 0.1 to 1 µM and an IC50 (JAK3) of 1 to 10 µM. It also gave an IC50 (Tyk2) of 0.1 to 1 µM.
